How the values were obtained:
Format in all cases: biochemical
K-Ras G12V = target: T1, K-Ras G12V (Homo sapiens, UniProt P01116, G12V); assay: HTRF resonance energy transfer assay, K-Ras G12V / SOS1 interaction; conditions: HTRF assay of Example 5; read-out: IC50 against K-Ras G12V
T1 construct: made in house; host or cells: E. coli BL21 (DE3)
Procedure, shortened: (§1)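 GST-tagged K-Ras (WT or mutant) bound to anti-GST-Eu donor was mixed with His-hSOS1 bound to anti-6His-XL665 acceptor in ~5 mM HEPES pH 7.4, 150 mM NaCl, 1 mM DTT, 0.05% BSA, 0.0025% Igepal. HTRF (ex 337, em 620/665 nm) was read after ~10 min or longer. IC50 came from the 665/620 ratio over duplicates from 10 μM to 0.01 μM.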

K-Ras WT = target: T2, K-Ras WT (Homo sapiens, UniProt P01116); assay: HTRF resonance energy transfer assay, K-Ras WT / SOS1 interaction; conditions: HTRF assay of Example 5; read-out: IC50 against K-Ras WT
T2 construct: made in house; host or cells: E. coli BL21 (DE3)
T2 sequence (P01116 1-188 isoform P01116-2): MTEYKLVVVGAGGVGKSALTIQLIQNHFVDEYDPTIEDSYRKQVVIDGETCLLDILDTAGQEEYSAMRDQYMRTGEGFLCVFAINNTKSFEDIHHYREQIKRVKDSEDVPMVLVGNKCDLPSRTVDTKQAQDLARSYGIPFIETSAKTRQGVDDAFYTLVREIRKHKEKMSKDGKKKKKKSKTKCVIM
Procedure, shortened: as §1

K-Ras G12S = target: T3, K-Ras G12S (Homo sapiens, UniProt P01116, G12S); assay: HTRF resonance energy transfer assay, K-Ras G12S / SOS1 interaction; conditions: HTRF assay of Example 5; read-out: IC50 against K-Ras G12S
T3 construct: made in house; host or cells: E. coli BL21 (DE3)
T3 sequence (P01116 1-188 isoform P01116-2 G12S): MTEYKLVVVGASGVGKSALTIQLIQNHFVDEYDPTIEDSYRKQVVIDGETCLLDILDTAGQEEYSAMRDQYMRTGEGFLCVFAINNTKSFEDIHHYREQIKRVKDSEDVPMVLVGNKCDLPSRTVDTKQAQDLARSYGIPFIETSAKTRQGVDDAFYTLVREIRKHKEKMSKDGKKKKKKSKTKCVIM
Procedure, shortened: as §1

K-Ras G12D = target: T4, K-Ras G12D (Homo sapiens, UniProt P01116, G12D); assay: HTRF resonance energy transfer assay, K-Ras G12D / SOS1 interaction; conditions: HTRF assay of Example 5; read-out: IC50 against K-Ras G12D
T4 construct: made in house; host or cells: E. coli BL21 (DE3)
T4 sequence (P01116 1-188 isoform P01116-2 G12D): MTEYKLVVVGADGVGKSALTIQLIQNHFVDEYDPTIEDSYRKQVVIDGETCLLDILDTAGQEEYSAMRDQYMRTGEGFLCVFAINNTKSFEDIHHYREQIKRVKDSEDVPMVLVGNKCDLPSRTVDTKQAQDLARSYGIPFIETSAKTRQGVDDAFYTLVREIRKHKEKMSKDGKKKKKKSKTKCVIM
Text: This assay can be also used to assess a selective inhibition or reduction of signaling output of a mutant Ras protein relative to a wildtype, or relative to a different mutant Ras protein. For example, the equilibrium interaction of wildtype Kras or K-Ras mutant (e.g., wildtype or a mutant thereof) with SOS1 (e.g., hSOS1) can be assessed as a proxy or an indication for a subject compound's ability to bind and inhibit Ras protein. HTRF assay detects from (i) a fluorescence resonance energy transfer (FRET) donor (e.g., antiGST-Europium) that is bound to GST-tagged K-Ras mutant to (ii) a FRET acceptor (e.g., anti-6His-XL665) bound to a His-tagged hSOS1.
The assay buffer can contain˜5 mM HEPES pH 7.4, ˜150 mM NaCl, ˜ 1 mM DTT, 0.05% BSA and 0.0025%(v/v) Igepal. A Ras working solution is prepared in an assay buffer containing typically a suitable amount of the protein construct (e.g., GST-tagged K-Ras mutant) and the FRET donor (e.g., antiGST-Eu(K) from Cisbio, France). A SOS1 working solution is prepared in an assay buffer containing suitable amount of the protein construct (e.g., His-hSOS1) and the FRET acceptor (e.g., anti-6His-XL665 from Cisbio, France). A suitable amount of the protein construct will depend on the range of activity or range of IC50 values being detected or under investigation. For detecting IC50 within a range of 500 nM, the protein constructs of the same range of molarity can be utilized.
A fixed volume of DMSO with or without test compound is transferred into a 384-well plate. Ras working solution is added to all wells of the test plate. SOS1 working solution is added to all wells except for those that are subsequently filled the inhibitor control solution. Upon incubation for about 10 minutes or longer, the fluorescence is measured with a M1000Pro plate reader (Tecan) using HTRF detection (excitation 337 nm, emission 1: 620 nm, emission 2: 665 nm). Compounds are tested in duplicates at different concentrations (for example, 10 μM, 2.5 μM, 0.63 μM, 0.16 μM, 0.04 μM, 0.01 μM test compound). The ratiometric data (i.e., emission 2 divided by emission 1) is used to calculate IC50 values against Ras using GraphPad Prism (GraphPad software). Following this general procedure, samples were tested with or without a subject compound disclosed herein including compounds exemplified in Table 1 to assess their abilities to inhibit a K-Ras mutant relative to another mutant or WT. Signaling output measured in terms of IC50 values can be obtained, a ratio of IC50 against one mutant relative to another mutant can be calculated. For instance, a selective reduction of K-Ras G12D signaling output can be evidenced by a ratio greater than one. In particular, a selective reduction of K-Ras G12D signaling relative to K-Ras WT signaling is evidenced as the ratio of IC50 (against K-Ras WT) to IC50 (against K-Ras G12D) is greater than 1.

Measured: IC50

T1 sequence (P01116 1-188 isoform P01116-2 G12V): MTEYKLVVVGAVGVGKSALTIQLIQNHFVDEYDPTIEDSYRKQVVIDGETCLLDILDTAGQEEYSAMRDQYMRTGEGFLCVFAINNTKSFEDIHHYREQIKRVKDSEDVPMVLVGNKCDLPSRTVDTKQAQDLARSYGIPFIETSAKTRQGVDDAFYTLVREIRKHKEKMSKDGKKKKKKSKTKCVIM

N#Cc1c(N)sc2c(F)ccc(-c3c(Cl)c4c5c(nc(OC[C@@]67CCCN6C[C@H](F)C7)nc5c3F)N(C3CNC3)CCO4)c12 [Compound 828, 2-amino-4-(4-(azetidin-3-yl)-8-chloro-10-fluoro-2-(((2R,7aS)-2-fluorotetrahydro-1H-pyrrolizin-7a(5H)-yl)methoxy)-5,6-dihydro-4H-[1,4]oxazepino[5,6,7-de]quinazolin-9-yl)-7-fluorobenzo[b]thiophene-3-carbonitrile]
< 0.1 µM: all assays above

N#Cc1c(N)sc2c(F)ccc(-c3c(Cl)c4c5c(nc(OC[C@@]67CCCN6C[C@H](F)C7)nc5c3F)N(CC(F)F)C(CO)CO4)c12 (stereo partly drawn) [Compound 840, 2-amino-4-(8-chloro-4-(2,2-difluoroethyl)-10-fluoro-2-(((2R,7aS)-2-fluorotetrahydro-1H-pyrrolizin-7a(5H)-yl)methoxy)-5-(hydroxymethyl)-5,6-dihydro-4H-[1,4]oxazepino[5,6,7-de]quinazolin-9-yl)-7-fluorobenzo[b]thiophene-3-carbonitrile]
< 0.1 µM: all assays above

C#C[C@H]1COc2c(Cl)c(-c3ccc(F)c4sc(N)c(C#N)c34)c(F)c3nc(OC[C@@]45CCCN4C[C@H](F)C5)nc(c23)N1C1CCOC1 (stereo partly drawn) [Compound 843, 2-amino-4-((5S)-8-chloro-5-ethynyl-10-fluoro-2-(((2R,7aS)-2-fluorotetrahydro-1H-pyrrolizin-7a(5H)-yl)methoxy)-4-(tetrahydrofuran-3-yl)-5,6-dihydro-4H-[1,4]oxazepino[5,6,7-de]quinazolin-9-yl)-7-fluorobenzo[b]thiophene-3-carbonitrile]
< 0.1 µM: all assays above

CC(O)C1COc2c(Cl)c(-c3ccc(F)c4sc(N)c(C#N)c34)c(F)c3nc(OC[C@@]45CCCN4C[C@H](F)C5)nc(c23)N1CC1CNC1 (stereo partly drawn) [Compound 848, 2-amino-4-(4-(azetidin-3-ylmethyl)-8-chloro-10-fluoro-2-(((2R,7aS)-2-fluorotetrahydro-1H-pyrrolizin-7a(5H)-yl)methoxy)-5-(1-hydroxyethyl)-5,6-dihydro-4H-[1,4]oxazepino[5,6,7-de]quinazolin-9-yl)-7-fluorobenzo[b]thiophene-3-carbonitrile]
< 0.1 µM: all assays above

C[C@H](Oc1nc2c3c(c(Cl)c(-c4ccc(F)c5sc(N)c(C#N)c45)c(F)c3n1)OCCN2C1CC2(CNC2)C1)[C@@H]1CCCN1C [Compound 856, 2-amino-4-(8-chloro-10-fluoro-2-((S)-1-((S)-1-methylpyrrolidin-2-yl)ethoxy)-4-(2-azaspiro[3.3]heptan-6-yl)-5,6-dihydro-4H-[1,4]oxazepino[5,6,7-de]quinazolin-9-yl)-7-fluorobenzo[b]thiophene-3-carbonitrile]
< 0.1 µM: all assays above

N#Cc1c(N)sc2c(F)ccc(-c3c(Cl)c4c5c(nc(OC[C@@]67CCCN6C[C@H](F)C7)nc5c3F)N([C@H]3CCNC3)CCO4)c12 [Compound 858, 2-amino-4-(8-chloro-10-fluoro-2-(((2R,7aS)-2-fluorotetrahydro-1H-pyrrolizin-7a(5H)-yl)methoxy)-4-((S)-pyrrolidin-3-yl)-5,6-dihydro-4H-[1,4]oxazepino[5,6,7-de]quinazolin-9-yl)-7-fluorobenzo[b]thiophene-3-carbonitrile]
< 0.1 µM: all assays above

Nc1nc2c(-c3c(Cl)c4c5c(nc(OC[C@@]67CCCN6C[C@H](F)C7)nc5c3F)N(C3CCNCC3)CCO4)ccc(F)c2s1 [Compound 898, 4-(8-chloro-10-fluoro-2-(((2R,7aS)-2-fluorotetrahydro-1H-pyrrolizin-7a(5H)-yl)methoxy)-4-(piperidin-4-yl)-5,6-dihydro-4H-[1,4]oxazepino[5,6,7-de]quinazolin-9-yl)-7-fluorobenzo[d]thiazol-2-amine]
< 0.1 µM: all assays above

CN(CCCN1CCOc2c(Cl)c(-c3ccc(F)c4sc(N)c(C#N)c34)c(F)c3nc(OC[C@@]45CCCN4C[C@H](F)C5)nc1c23)C(=O)[C@H]1CN1 [Compound 908, (2R)-N-(3-(9-(2-amino-3-cyano-7-fluorobenzo[b]thiophen-4-yl)-8-chloro-10-fluoro-2-(((2R,7aS)-2-fluorotetrahydro-1H-pyrrolizin-7a(5H)-yl)methoxy)-5,6-dihydro-4H-[1,4]oxazepino[5,6,7-de]quinazolin-4-yl)propyl)-N-methylaziridine-2-carboxamide]
< 0.1 µM: all assays above

N#Cc1c(N)sc2c(F)ccc(-c3c(Cl)c4c5c(nc(OC[C@@]67CCCN6C[C@H](F)C7)nc5c3F)N(C3CCOC3)C(C3(C#N)CC3)CO4)c12 (stereo partly drawn) [Compound 913, 2-amino-4-(8-chloro-5-(1-cyanocyclopropyl)-10-fluoro-2-(((2R,7aS)-2-fluorotetrahydro-1H-pyrrolizin-7a(5H)-yl)methoxy)-4-(tetrahydrofuran-3-yl)-5,6-dihydro-4H-[1,4]oxazepino[5,6,7-de]quinazolin-9-yl)-7-fluorobenzo[b]thiophene-3-carbonitrile]
< 0.1 µM: all assays above

CNCCCN1c2nc(OC[C@@]34CCCN3C[C@H](F)C4)nc3c(F)c(-c4ccc(F)c5sc(N)c(C#N)c45)c(Cl)c(c23)OCC1CC#N (stereo partly drawn) [Compound 928, 2-amino-4-(8-chloro-5-(cyanomethyl)-10-fluoro-2-(((2R,7aS)-2-fluorotetrahydro-1H-pyrrolizin-7a(5H)-yl)methoxy)-4-(3-(methylamino)propyl)-5,6-dihydro-4H-[1,4]oxazepino[5,6,7-de]quinazolin-9-yl)-7-fluorobenzo[b]thiophene-3-carbonitrile]
< 0.1 µM: all assays above

N#Cc1c(N)sc2c(F)ccc(-c3c(Cl)c4c5c(nc(OC[C@@]67CCCN6C[C@H](F)C7)nc5c3F)N(C3CCCCN(C(=O)C5CN5)C3)CCO4)c12 (stereo partly drawn) [Compound 934, 2-amino-4-(4-(1-(aziridine-2-carbonyl)azepan-3-yl)-8-chloro-10-fluoro-2-(((2R,7aS)-2-fluorotetrahydro-1H-pyrrolizin-7a(5H)-yl)methoxy)-5,6-dihydro-4H-[1,4]oxazepino[5,6,7-de]quinazolin-9-yl)-7-fluorobenzo[b]thiophene-3-carbonitrile]
< 0.1 µM: all assays above

Reference: patent US12209102B2, “Heterocyclic compounds and uses thereof” (Kumquat Biosciences Inc., priority 2022, dated 2025)
